# Test results: paper PMC2391127, “Modulation of erlotinib pharmacokinetics in mice by a novel cytochrome P450 3A4 inhibitor, BAS 100” (British Journal of Cancer, 2008)
# Read-outs that look alike come from different tables or passages of the source.
# Experiments:
# [1] = Plasma pharmacokinetics of erlotinib, OSI-420 and BAS 100 after oral dosing in BALB/c mice; format: in vivo; conditions: for AUC(0-t) / Cmax / half-life: BALB/c; for AUC(0-t) / Cmax / half-life / Tmax: mouse, po; for half-life: read-out: HL λz (terminal half-life) (converted)
# Experimental: (§1) BAS 100 was obtained from Bioavailabilty Systems (Cocoa Beach, FL, USA), and erlotinib and OSI-420 were obtained from Toronto Research Chemicals (North York, ON, Canada). All other chemicals and reagents were purchased from Sigma-Aldrich (St Louis, MO, USA). Female BALB/c mice (6–8 weeks old) were kept in a controlled environment, with food and water available ad libitum. All procedures were carried out with NCI Animal Care and Use Committee approval. In the first study, BAS 100 and erlotinib were formulated in 10% DMSO and 5% polysorbate 80 in saline. Mice were randomised to receive erlotinib (10 mg kg^−1, p.o.) alone or 30 min after BAS 100 (10 mg kg^−1, p.o.). Blood was collected by cardiac puncture from three mice per time point at 0.083, 0.25, 0.5, 1, 2, 4, 6 and 24 h following erlotinib administration, and centrifuged to obtain plasma. In the second study, erlotinib was formulated in 0.3% carboxymethylcellulose and 0.1% polysorbate 80 in saline. Female CYP3A4 transgenic mice ([Granvil et al, 2003]) and wild-type FVB/NCr mice (14 weeks old) received erlotinib (10 mg kg^−1, p.o.) alone or 30 min after BAS 100 (25 mg kg^−1, p.o.). Blood was collected 2 h after erlotinib administration. All samples were stored at −80°C until analysis. Plasma concentrations of erlotinib and OSI-420 were measured as described previously ([Zhao et al, 2003]). Plasma concentrations of BAS 100 were measured by a novel liquid chromatography-tandem mass spectrometry method. Briefly, plasma samples were prepared by protein precipitation with acetonitrile. BAS 100 and the internal standard (temazepam) were resolved isocratically on a Waters XTerra MS C18 column (50 × 2.1 mm internal diameter; 3.5 μm particle size). The mass spectrometer was equipped with an electrospray ionisation source and operated in positive mode. Detection was performed by multiple reaction monitoring. The lower limit of quantitation was 10 ng ml^−1. Pharmacokinetic parameters were determined by noncompartmental analysis using WinNonlin Professional Version 5.2 (Pharsight Corporation, Mountain View, CA, USA). Bailer's method ([Bailer, 1988]) was used to estimate the variance of the area under the curve (AUC). A Z-test was used for the pairwise comparison of AUCs ([Yuan, 1993]).
# [2] = 2-h plasma concentration of erlotinib in CYP3A4 transgenic mice; conditions: female, mouse, in vivo, po, 10 mg kg^-1
# Experimental: BAS 100 was obtained from Bioavailabilty Systems (Cocoa Beach, FL, USA), and erlotinib and OSI-420 were obtained from Toronto Research Chemicals (North York, ON, Canada). All other chemicals and reagents were purchased from Sigma-Aldrich (St Louis, MO, USA). Female BALB/c mice (6–8 weeks old) were kept in a controlled environment, with food and water available ad libitum. All procedures were carried out with NCI Animal Care and Use Committee approval. In the first study, BAS 100 and erlotinib were formulated in 10% DMSO and 5% polysorbate 80 in saline. Mice were randomised to receive erlotinib (10 mg kg^−1, p.o.) alone or 30 min after BAS 100 (10 mg kg^−1, p.o.). Blood was collected by cardiac puncture from three mice per time point at 0.083, 0.25, 0.5, 1, 2, 4, 6 and 24 h following erlotinib administration, and centrifuged to obtain plasma. In the second study, erlotinib was formulated in 0.3% carboxymethylcellulose and 0.1% polysorbate 80 in saline. […] Plasma concentrations of erlotinib and OSI-420 were measured as described previously ([Zhao et al, 2003]). Plasma concentrations of BAS 100 were measured by a novel liquid chromatography-tandem mass spectrometry method. […] The lower limit of quantitation was 10 ng ml^−1. Pharmacokinetic parameters were determined by noncompartmental analysis using WinNonlin Professional Version 5.2 (Pharsight Corporation, Mountain View, CA, USA). […]
# [3] = 2-h plasma concentration of erlotinib in wild-type FVB/NCr mice; format: in vivo; conditions: for concentration at 2 h: female, FVB/NCr, mouse, plasma, po
# Experimental: as §1, with “Bailer's method ([Bailer, 1988]) was used to estimate the variance of the area under the curve (AUC). A Z-test was used for the pairwise comparison of AUCs ([Yuan, 1993]).” left out
# [4] = ref Hidalgo et al, 2001, cited from earlier work
# [5] = female, plasma, 10 mg/kg, plasma, erlotinib 10 mg kg^-1 p.o. 30 min after BAS 100 10 mg kg^-1 p.o., BALB/c mice
# [6] = female, plasma, 10 mg/kg, erlotinib 10 mg kg^-1 p.o. alone (-BAS 100), BALB/c mice
SMILES,"erlotinib exposure after 2.5-fold increase in the dose of BAS 100 ([1]; BAS 100 25 mg kg^-1 vs 10 mg kg^-1, data not shown)","fold increase in the AUC of erlotinib by BAS 100 ([1]; erlotinib 10 mg kg^-1 p.o. after BAS 100 10 mg kg^-1 p.o. vs alone, P<0.05)","AUC(0-t) [1, 5]","Cmax [1, 5]","half-life [1, 5]","half-life ([1]; female, plasma, 10 mg/kg, plasma, erlotinib 10 mg kg^-1 p.o. alone (-BAS 100), BALB/c mice)","AUC(0-t) [1, 6]","Cmax [1, 6]","Tmax ([1]; female, plasma, erlotinib 10 mg kg^-1 p.o. alone (-BAS 100), BALB/c mice, read-out: Tmax)",concentration at 2 h [2],fold increase in 2-h plasma concentration of erlotinib by BAS 100 ([3]; BAS 100 25 mg kg^-1 p.o.),concentration at 2 h ([3]; erlotinib 10 mg kg^-1 p.o. 30 min after BAS 100 25 mg kg^-1 p.o.),concentration at 2 h ([3]; erlotinib 10 mg kg^-1 p.o. alone),relative extent of metabolism of erlotinib into OSI-420 ([4]; cancer patients),"interindividual pharmacokinetic variability ([4]; patients, Tan et al, 2004)","Tmax ([1]; in vivo, 10 mg/kg)"
C#Cc1cccc(Nc2ncnc3cc(OCCOC)c(OCCOC)cc23)c1 [Erlotinib],did not result in a further increase in erlotinib exposure,2.1 fold,38000 ng·h/mL,3950 ng/mL,192 min,186 min,18000 ng·h/mL,2320 ng/mL,30 min,929 ± 80 ng/mL,1.9 fold,1410 ± 237 ng/mL,744 ± 135 ng/mL,0.12,up to eight-fold,
C#Cc1cccc(Nc2ncnc3cc(OCCOC)c(OCCO)cc23)c1 [OSI-420],,,,,,,,,,,,,,,,120 min
